Data taken from patent US20240116985A1, “STAPLED PEPTIDES AND METHODS THEREOF” (priority 2020, published 2024).
Read-outs that look alike come from different tables or passages of the source.

Key:
[1] = target: T1, full-length beta-Catenin (Uniprot ID P35222) (Homo sapiens, UniProt P35222); test: Fluorescence polarization IC50 (beta-catenin / 5FAM-TCF4 10-53 competition); assay type: binding; conditions: fluorescence polarization; read-out: beta-Catenin FP IC50
T1 construct: 10 nM full-length beta-Catenin (Uniprot ID P35222)
T1 sequence (P35222 1-781): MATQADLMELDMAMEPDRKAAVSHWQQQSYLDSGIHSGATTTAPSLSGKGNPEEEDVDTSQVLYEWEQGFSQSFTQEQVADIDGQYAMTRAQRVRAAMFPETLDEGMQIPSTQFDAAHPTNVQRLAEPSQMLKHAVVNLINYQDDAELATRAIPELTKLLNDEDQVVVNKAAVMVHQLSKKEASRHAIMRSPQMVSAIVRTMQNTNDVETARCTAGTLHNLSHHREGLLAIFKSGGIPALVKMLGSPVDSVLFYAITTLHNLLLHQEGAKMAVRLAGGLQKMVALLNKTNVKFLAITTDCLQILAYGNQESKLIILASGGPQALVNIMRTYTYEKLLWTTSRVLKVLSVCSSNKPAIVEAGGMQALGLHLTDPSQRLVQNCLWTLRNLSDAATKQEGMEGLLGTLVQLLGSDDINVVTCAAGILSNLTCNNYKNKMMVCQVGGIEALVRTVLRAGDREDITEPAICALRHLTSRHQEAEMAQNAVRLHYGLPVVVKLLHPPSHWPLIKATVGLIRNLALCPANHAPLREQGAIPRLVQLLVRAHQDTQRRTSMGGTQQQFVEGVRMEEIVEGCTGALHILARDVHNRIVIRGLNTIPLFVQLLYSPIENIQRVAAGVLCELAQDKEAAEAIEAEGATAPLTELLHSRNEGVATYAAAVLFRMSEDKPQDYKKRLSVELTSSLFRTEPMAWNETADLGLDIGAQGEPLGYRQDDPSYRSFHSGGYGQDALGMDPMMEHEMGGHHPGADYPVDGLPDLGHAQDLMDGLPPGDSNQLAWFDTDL

[2] = target: T2, beta-catenin/TCF4 engagement (Homo sapiens, UniProt P35222); test: Nano-BRET target engagement assay (B-cat-Halo & TCF4-Luc in HEK293 cells); assay type: cell-based; conditions: read-out: NanoBRET Abs IC50
T2 construct: expressed in transfected cells; host or cells: HEK293
T2 sequence (P35222 1-781): T1 sequence (P35222 1-781)

SMILES: CC(=O)N1CCC[C@]12CC=CCCCC1(CCCC=CCCCOC(=O)N3CC[C@@](C(=O)N[C@@H](Cc4ccsc4)C(=O)N[C@@H](Cc4cccc5ccccc45)C(=O)N[C@@H](CO)C(N)=O)(C3)NC(=O)[C@H](CC(C)C)NC(=O)[C@H](Cc3ccccc3)NC(=O)[C@H](C)NC(=O)[C@H](C)NC(=O)[C@H](CC(=O)O)NC(=O)[C@H](CC(=O)O)NC1=O)NC(=O)[C@H](CC(C)(C)C)NC(=O)[C@H](CC(=O)O)NC2=O (stereo partly drawn) [I-1238, Ac-PL3-Asp-Npg-B5-Asp-Asp-Ala-Ala-Phe-Leu-PyrS2-3Thi-1NapA-Ser-NH2]
- IC50 [1]: 44 nM
- IC50 ([2]; absolute IC50): 23100 nM

SMILES: CC(=O)N1CCC[C@]12CC=CCCCC1(CCCC=CCCCOC(=O)N3CC[C@@](C(=O)N[C@@H](Cc4ccsc4)C(=O)N[C@@H](Cc4csc5ccccc45)C(=O)N[C@@H](CC(N)=O)C(=O)N[C@@H](C)C(=O)N[C@@H](C)C(=O)N[C@@H](C)C(N)=O)(C3)NC(=O)[C@H](CC(C)C)NC(=O)[C@H](Cc3ccccc3)NC(=O)[C@H](C)NC(=O)[C@H](C)NC(=O)[C@H](Cc3cccc(C(=O)O)c3)NC(=O)[C@H](CC(=O)O)NC1=O)NC(=O)[C@H](CC(C)(C)C)NC(=O)[C@H](CC(=O)O)NC2=O (stereo partly drawn) [I-2046, Ac-PL3-Asp-Npg-B5-Asp-3COOHF-Ala-Ala-Phe-Leu-PyrS2-3Thi-BztA-Asn-Ala-Ala-Ala-NH2]
- IC50 [1]: 12 nM
- IC50 [2]: 2900 nM

SMILES: CCNC(=O)CC[C@H](NC(=O)[C@H](Cc1csc2ccccc12)NC(=O)[C@H](Cc1ccccc1C(F)(F)F)NC(=O)[C@]12CCN(C1)C(=O)OCCCC=CCCCC1(CCCC=CC[C@]3(CCCN3C(C)=O)C(=O)N[C@@H](CC(=O)O)C(=O)N[C@@H](CC(C)(C)C)C(=O)N1)C(=O)N[C@@H](CC(=O)O)C(=O)N[C@@H](Cc1cccc(C(=O)O)c1)C(=O)N[C@@H](C)C(=O)N[C@@H](C)C(=O)N[C@@H](Cc1ccccc1)C(=O)N[C@@H](CC)C(=O)N2)C(=O)N[C@@H](C)C(N)=O (stereo partly drawn) [I-2472, Ac-PL3-Asp-Npg-B5-Asp-3COOHF-Ala-Ala-Phe-Abu-PyrS2-2F3MeF-BztA-INHEt]GlnR-Ala-NH2]
- IC50 [1]: 13 nM
- IC50 ([2]; absolute IC50): 1800 nM

SMILES: CCCC[C@@H]1NC(=O)[C@H](Cc2ccccc2)NC(=O)[C@H](C)NC(=O)[C@H](C)NC(=O)[C@H](CC(=O)O)NC(=O)[C@H](CC(=O)O)NC(=O)C2(CCCC=CCCCOC(=O)N3CC[C@@](C(=O)N[C@@H](Cc4ccccc4)C(=O)N[C@@H](Cc4csc5ccccc45)C(=O)N[C@@H](CCC(N)=O)C(N)=O)(C3)NC1=O)CCCC=CC[C@]1(CCCN1C(C)=O)C(=O)N[C@@H](CC(=O)O)C(=O)N[C@@H](CC(C)C)C(=O)N2 (stereo partly drawn) [I-1404, Ac-PL3-Asp-Leu-B5-Asp-Asp-Ala-Ala-Phe-nLeu-PyrS2-Phe-BztA-Gln-NH2]
- IC50 [1]: 113 nM
- IC50 ([2]; absolute IC50): 36800 nM

SMILES: CC(=O)N1CCC[C@]12CC=CCCCC1(CCCC=CCCCOC(=O)N3CC[C@@](C(=O)N[C@@H](Cc4ccsc4)C(=O)N[C@@H](Cc4csc5ccccc45)C(=O)N[C@@H](CC(=O)N(C)C)C(N)=O)(C3)NC(=O)[C@H](CC(N)=O)NC(=O)[C@H](Cc3ccccc3)NC(=O)[C@H](C)NC(=O)C(C)(C)NC(=O)[C@H]([C@@H](C)O)NC(=O)[C@H](CC(N)=O)NC1=O)NC(=O)[C@H](CC(C)(C)C)NC(=O)[C@H](CC(=O)O)NC2=O (stereo partly drawn) [I-2494, Ac-PL3-Asp-Npg-B5-Asn-Thr-Aib-Ala-Phe-Asn-PyrS2-3Thi-BztA-Me2Asn-NH2]
- IC50 [1]: 102 nM
- IC50 ([2]; absolute IC50): > 20000 nM

SMILES: CC(=O)N1CCC[C@]12CC=CCCCC1(CCCC=CCCCOC(=O)N3CC[C@@](C(=O)N[C@@H](Cc4ccsc4)C(=O)N[C@@H](Cc4csc5ccccc45)C(=O)N[C@@H](CCC(N)=O)C(N)=O)(C3)NC(=O)[C@H](CC(C)C)NC(=O)[C@H](Cc3ccccc3)NC(=O)[C@H](C)NC(=O)[C@H](C)NC(=O)[C@H](CCC(=O)OCCSSc3ccccn3)NC(=O)[C@H](CC(=O)O)NC1=O)NC(=O)[C@H](CC(C)(C)C)NC(=O)[C@H](CC(=O)O)NC2=O (stereo partly drawn) [I-1951, Ac-PL3-Asp-Npg-B5-Asp-[EtSSpy]GluE-Ala-Ala-Phe-Leu-PyrS2-3Thi-BztA-Gln-NH2]
- IC50 [1]: 264 nM
- IC50 [2]: > 20000 nM

SMILES: CC(=O)N1CCC[C@]12CC=CCCCC1(CCCC=CCCOC(=O)N3CC[C@@](C(=O)N[C@@H](Cc4ccsc4)C(=O)N[C@@H](Cc4csc5ccccc45)C(=O)N[C@@H](CCC(N)=O)C(N)=O)(C3)NC(=O)[C@H](CC(N)=O)NC(=O)[C@H](Cc3ccccc3)NC(=O)[C@H](C)NC(=O)[C@H](C)NC(=O)[C@H](CC(=O)O)NC(=O)[C@H](CC(=O)O)NC1=O)NC(=O)[C@H](CC(C)(C)C)NC(=O)[C@H](CC(=O)O)NC2=O (stereo partly drawn) [I-1813, Ac-PL3-Asp-Npg-B5-Asp-Asp-Ala-Ala-Phe-Asn-PyrS1-3Thi-BztA-Gln-NH2]
- IC50 [1]: 26 nM
- IC50 ([2]; absolute IC50): > 20000 nM

SMILES: CC(=O)N1CCC[C@]12CC=CCCCC1(CCCC=CCCCOC(=O)N3CC[C@@](C(=O)N[C@@H](Cc4ccsc4)C(=O)N[C@@H](Cc4csc5ccccc45)C(=O)N[C@@H](CCC(N)=O)C(N)=O)(C3)NC(=O)[C@H](CC(C)C)NC(=O)[C@H](Cc3ccccc3)NC(=O)[C@H](C)NC(=O)[C@H](C)NC(=O)[C@H](CCN(CC(=O)O)Cc3c(F)c(F)c(F)c(F)c3F)NC(=O)[C@H](CC(=O)O)NC1=O)NC(=O)[C@H](CC(C)(C)C)NC(=O)[C@H](CC(=O)O)NC2=O (stereo partly drawn) [I-1838, Ac-PL3-Asp-Npg-B5-Asp-[Pfbn]GAbu-Ala-Ala-Phe-Leu-PyrS2-3Thi-BztA-Gln-NH2]
- IC50 [1]: 85 nM
- IC50 ([2]; absolute IC50): 7900 nM

SMILES: CC(=O)N1CCC[C@]12CCCCC1(CCCCCCCCOC(=O)N3CC[C@](C(=O)N[C@@H](Cc4ccsc4)C(=O)N[C@@H](Cc4csc5ccccc45)C(=O)N[C@@H](CCC(N)=O)C(N)=O)(C3)NC(=O)[C@H](CC(C)C)NC(=O)[C@H](Cc3ccccc3)NC(=O)[C@H](C)NC(=O)[C@H](C)NC(=O)[C@H](CC(=O)O)NC(=O)[C@H](CC(=O)O)NC1=O)NC(=O)[C@H](CC(C)(C)C)NC(=O)[C@H](CC(=O)O)NC2=O (stereo partly drawn) [I-2162, Ac-PL3-Asp-Npg-B3-Asp-Asp-Ala-Ala-Phe-Leu-PyrS4-3Thi-BztA-Gln-NH2]
- IC50 [1]: 1160 nM
- IC50 [2]: > 20000 nM

SMILES: CC(=O)N1CCC[C@]12CC=CCCCC1(CCCC=CCCCOC(=O)N3CC[C@@](C(=O)N[C@@H](Cc4ccccc4Cl)C(=O)N[C@@H](Cc4csc5ccccc45)C(=O)N[C@@H](CCC(N)=O)C(N)=O)(C3)NC(=O)[C@H](CC(C)C)NC(=O)[C@H](Cc3ccccc3)NC(=O)CNC(=O)[C@H](C)NC(=O)[C@H](Cc3cccc(C(=O)O)c3)NC(=O)[C@H](CC(=O)O)NC1=O)NC(=O)[C@H](CC(C)(C)C)NC(=O)[C@H](CC(=O)O)NC2=O (stereo partly drawn) [I-1687, Ac-PL3-Asp-Npg-B5-Asp-3COOHF-Ala-Gly-Phe-Leu-PyrS2-2C1F-BztA-Gln-NH2]
- IC50 [1]: 42 nM
- IC50 ([2]; absolute IC50): 18600 nM

SMILES: CCCC[C@@H]1NC(=O)[C@H](Cc2ccccc2)NC(=O)[C@H](C)NC(=O)C(C)(C)NC(=O)[C@H](Cc2cccc(C(=O)O)c2)NC(=O)[C@H](CC(=O)O)NC(=O)C2(CCCC=CCCCOC(=O)N3CC[C@@](C(=O)N[C@@H](Cc4ccsc4)C(=O)N[C@@H](Cc4csc5ccccc45)C(=O)N[C@@H](CCC(=O)N(C)C)C(N)=O)(C3)NC1=O)CCCC=CC[C@]1(CCCN1C(C)=O)C(=O)N[C@@H](CC(=O)O)C(=O)N[C@@H](CC(C)(C)C)C(=O)N2 (stereo partly drawn) [I-2551, Ac-PL3-Asp-Npg-B5-Asp-3COOHF-Aib-Ala-Phe-nLeu-PyrS2-3Thi-BztA-[NMe2]GlnR-NH2]
- IC50 [1]: 8 nM
- IC50 ([2]; absolute IC50): 9800 nM

SMILES: CC(=O)N1CCC[C@]12CC=CCCCC1(CCCC=CCCCOC(=O)N3CC[C@@](C(=O)N[C@@H](Cc4ccsc4)C(=O)N[C@@H](Cc4csc5ccccc45)C(=O)N[C@@H](CC(N)=O)C(=O)N[C@@H](C)C(=O)N[C@@H](CC(C)C)C(=O)N[C@@H](C)C(=O)N[C@@H](CC(C)C)C(=O)N[C@@H](C)C(=O)N[C@@H](CC(C)C)C(=O)N[C@@H](C)C(N)=O)(C3)NC(=O)[C@H](CC(C)C)NC(=O)[C@H](Cc3ccccc3)NC(=O)[C@H](C)NC(=O)[C@H](C)NC(=O)[C@H](Cc3cccc(C(=O)O)c3)NC(=O)[C@H](CC(=O)O)NC1=O)NC(=O)[C@H](CC(C)(C)C)NC(=O)[C@H](CC(=O)O)NC2=O (some centres unmarked) [I-2284]
- IC50 [1]: 2680 nM
- IC50 ([2]; absolute IC50): 12900 nM

SMILES: CC(=O)N1CCC[C@]12CC=CCCCC1(CCCC=CCCCOC(=O)N3CC[C@@](C(=O)N[C@@H](Cc4ccccc4Cl)C(=O)N[C@@H](Cc4cccc5ccccc45)C(=O)N[C@@H](CCC(N)=O)C(N)=O)(C3)NC(=O)[C@H](CC(C)C)NC(=O)[C@H](Cc3ccccc3)NC(=O)[C@H](C)NC(=O)[C@H](C)NC(=O)[C@H](CC(=O)O)NC(=O)[C@H](CC(=O)O)NC1=O)NC(=O)[C@H](CC(C)(C)C)NC(=O)[C@H](CC(=O)O)NC2=O (stereo partly drawn) [I-1236, Ac-PL3-Asp-Npg-B5-Asp-Asp-Ala-Ala-Phe-Leu-PyrS2-2C1F-1NapA-Gln-NH2]
- IC50 [1]: 69 nM
- IC50 ([2]; absolute IC50): 20900 nM
